Tests used:
[1] = rat, in vivo
Description: (§1) SD-strain mature female rats (weighing about 270 g, 14 to 18 weeks old, in groups of 4 to 5 individuals) at diestrus as selected by the vaginal smear test covering a period of at least one week are anesthetized with pentobarbital and phenobarbital at 8-11 a.m., and a solution prepared by dissolving 500 μg of TAP-144 and 20 mg (2%), 50 mg (5%) or 100 mg (10%) of α-cyclodextrin in physiological saline in an amount to make 1 ml is administered into the vagina with about 12 mg of cotton soaked therewith at the dose level of 0.2 ml/kg (corresponding 100 μg/kg of TAP-144).

in vivo [2] = conditions: female, SD, rat, iv, 100 ug/kg
Description: as §1

in vivo [3] = conditions: rat, 100 ug/kg, Concentration in Serum
Description: In 0.1 ml of physiological saline are dissolved 100 μg of TAP-144 and 5 mg of α-cyclodextrin, and in the manner of Experimental Example 1, the 0.1 ml/kg equivalent of the solution is administered into the nasal cavity (the dose of TAP-144: 100 μg/kg).

With `CCNC(=O)[C@@H]1CCCN1C(=O)[C@H](CCCNC(=N)N)NC(=O)[C@H](CC(C)C)NC(=O)[C@@H](CC(C)C)NC(=O)[C@H](Cc1ccc(O)cc1)NC(=O)[C@H](CO)NC(=O)[C@H](Cc1c[nH]c2ccccc12)NC(=O)[C@H](Cc1c[nH]cn1)NC(=O)[C@@H]1CCC(=O)N1` [TAP-144] the “promotion of vaginal absorption as compared with the control vaginal preparation” value [1] was “about 6 times”, the “Concentration of TAP-144 in serum” value ([1]; 100 ug/kg, 0.5 h) was 0.0321 µg/mL and the level at 5 min (in vivo [2]) was 0.212 µg/mL. The level at 10 min (in vivo [2]) was 0.173 µg/mL, the level at 0.5 h (in vivo [2]) was 0.0742 µg/mL and the level at 1 h (in vivo [2]) was 0.0393 µg/mL. For the same compound, the level at 2 h (in vivo [2]) was 0.00676 µg/mL, the level at 4 h (in vivo [2]) was 0.00183 µg/mL and the level at 6 h (in vivo [2]) was under 0.00013 µg/mL. It also gave a level at 0.5 h (in vivo [3]; SD (Sprague-Dawley), sc) of 0.044 µg/mL, a level at 1 h (in vivo [3]; SD (Sprague-Dawley), sc) of 0.0402 µg/mL and a level at 2 h (in vivo [3]; SD (Sprague-Dawley), sc) of 0.024 µg/mL. It also gave a level at 4 h (in vivo [3]; SD (Sprague-Dawley), sc) of 0.0067 µg/mL, a level at 0.5 h (in vivo [3]; SD, inhaled or intranasal) of 0.0032 µg/mL and a level at 4 h (in vivo [3]; SD, inhaled or intranasal) of 0.0039 µg/mL.

Reference: patent US4670419A, “Pharmaceutical composition and its rectal use” (Takeda Chemical Industries, Ltd., priority 1982, dated 1987)
